Reference: ChEMBL document CHEMBL3885881, “DrugMatrix”

Organism: Rattus norvegicus
Assay: DrugMatrix - Regimen: Daily Repeat
Format: toxicity, organism-based, Sprague-Dawley
Design: regimen Daily Repeat, gender Male, age 6-8 weeks
Details: in vivo, po, route oral GAVAGE, vehicle .5 % CMC; for ABSOLUTE BASOPHIL / ABSOLUTE EOSINOPHIL / ABSOLUTE LYMPHOCYTE / ABSOLUTE MONOCYTE / ABSOLUTE SEGMENTED NEUTROPHIL / BASOPHIL / EOSINOPHIL / ERYTHROCYTE COUNT / HEMATOCRIT / HEMOGLOBIN / LEUKOCYTE COUNT / LYMPHOCYTE / MEAN CORPUSCULAR HEMOGLOBIN / MEAN CORPUSCULAR HEMOGLOBIN CONCENTRATION / MEAN CORPUSCULAR VOLUME / MONOCYTE / NEUTROPHIL / NUCLEATED RED BLOOD CELLS / PLATELET COUNT: tissue Blood; for ALANINE AMINOTRANSFERASE / ALBUMIN / ALKALINE PHOSPHATASE / ASPARTATE AMINOTRANSFERASE / BLOOD UREA NITROGEN / CARBON DIOXIDE / CHLORIDE / CHOLESTEROL / CREATINE PHOSPHOKINASE / CREATININE / GLUCOSE / LACTATE DEHYDROGENASE / LIPASE / PHOSPHORUS / POTASSIUM / SODIUM / TOTAL BILIRUBIN / TOTAL PROTEIN / URIC ACID: tissue Plasma
[1] = 10 mg/kg, 72 h, dose level Low, time 3 day
[2] = 10 mg/kg, 120 h, dose level Low, time 5 day
[3] = 200 mg/kg, 72 h, dose level High, time 3 day
[4] = 200 mg/kg, 120 h, dose level High, time 5 day

SMILES: Nc1nc(N)c2nc(-c3ccccc3)c(N)nc2n1
- ABSOLUTE BASOPHIL [1]: 0 CELLS/uL
- ABSOLUTE EOSINOPHIL [1]: 222 CELLS/uL
- ABSOLUTE LYMPHOCYTE [1]: 17071.33 CELLS/uL
- ABSOLUTE MONOCYTE [1]: 553.33 CELLS/uL
- ABSOLUTE SEGMENTED NEUTROPHIL [1]: 1620 CELLS/uL
- BASOPHIL [1]: 0%
- EOSINOPHIL [1]: 1%
- ERYTHROCYTE COUNT [1]: 5.9 x10E6/uL
- HEMATOCRIT [1]: 37.03%
- HEMOGLOBIN [1]: 13.67 G/DL
- LEUKOCYTE COUNT [1]: 19.47 x10E3/uL
- LYMPHOCYTE [1]: 87.33%
- MEAN CORPUSCULAR HEMOGLOBIN [1]: 23.17 pg
- MEAN CORPUSCULAR HEMOGLOBIN CONCENTRATION [1]: 36.93 G/DL
- MEAN CORPUSCULAR VOLUME [1]: 62.7 fL
- MONOCYTE [1]: 3%
- NEUTROPHIL [1]: 8.67%
- NUCLEATED RED BLOOD CELLS [1]: 0 /100WBC
- PLATELET COUNT [1]: 1434.33 x10E3/uL
- ALANINE AMINOTRANSFERASE [1]: 48.33 u/L
- ALBUMIN [1]: 4.3 G/DL
- ALKALINE PHOSPHATASE [1]: 469.67 u/L
- ASPARTATE AMINOTRANSFERASE [1]: 88 u/L
- BLOOD UREA NITROGEN [1]: 15.33 mg/dL
- CARBON DIOXIDE [1]: 24 mmol/L
- CHLORIDE [1]: 104.67 MEQ/L
- CHOLESTEROL [1]: 67.33 mg/dL
- CREATINE PHOSPHOKINASE [1]: 281 u/L
- CREATININE [1]: 0.21 mg/dL
- GLUCOSE [1]: 161.33 mg/dL
- LACTATE DEHYDROGENASE [1]: 437.67 u/L
- LIPASE [1]: 8.67 u/L
- PHOSPHORUS [1]: 13.37 mg/dL
- POTASSIUM [1]: 6.69 MEQ/L
- SODIUM [1]: 147.13 MEQ/L
- TOTAL BILIRUBIN [1]: 0.23 mg/dL
- TOTAL PROTEIN [1]: 6.03 G/DL
- URIC ACID [1]: 2.37 mg/dL
- ABSOLUTE BASOPHIL [2]: 0 CELLS/uL
- ABSOLUTE EOSINOPHIL [2]: 142.67 CELLS/uL
- ABSOLUTE LYMPHOCYTE [2]: 11218.33 CELLS/uL
- ABSOLUTE MONOCYTE [2]: 128 CELLS/uL
- ABSOLUTE SEGMENTED NEUTROPHIL [2]: 1311 CELLS/uL
- BASOPHIL [2]: 0%
- EOSINOPHIL [2]: 1.33%
- ERYTHROCYTE COUNT [2]: 5.9 x10E6/uL
- HEMATOCRIT [2]: 36.6%
- HEMOGLOBIN [2]: 13.67 G/DL
- LEUKOCYTE COUNT [2]: 12.8 x10E3/uL
- LYMPHOCYTE [2]: 87.67%
- MEAN CORPUSCULAR HEMOGLOBIN [2]: 23.17 pg
- MEAN CORPUSCULAR HEMOGLOBIN CONCENTRATION [2]: 37.33 G/DL
- MEAN CORPUSCULAR VOLUME [2]: 62 fL
- MONOCYTE [2]: 1%
- NEUTROPHIL [2]: 10%
- NUCLEATED RED BLOOD CELLS [2]: 0.33 /100WBC
- PLATELET COUNT [2]: 1227.67 x10E3/uL
- ALANINE AMINOTRANSFERASE [2]: 45.33 u/L
- ALBUMIN [2]: 4.2 G/DL
- ALKALINE PHOSPHATASE [2]: 320.33 u/L
- ASPARTATE AMINOTRANSFERASE [2]: 83 u/L
- BLOOD UREA NITROGEN [2]: 18.67 mg/dL
- CARBON DIOXIDE [2]: 26 mmol/L
- CHLORIDE [2]: 106.67 MEQ/L
- CHOLESTEROL [2]: 68.33 mg/dL
- CREATINE PHOSPHOKINASE [2]: 371.67 u/L
- CREATININE [2]: 0.19 mg/dL
- GLUCOSE [2]: 145 mg/dL
- LACTATE DEHYDROGENASE [2]: 432 u/L
- LIPASE [2]: 9 u/L
- PHOSPHORUS [2]: 11.77 mg/dL
- POTASSIUM [2]: 5.68 MEQ/L
- SODIUM [2]: 147.3 MEQ/L
- TOTAL BILIRUBIN [2]: 0.17 mg/dL
- TOTAL PROTEIN [2]: 5.93 G/DL
- URIC ACID [2]: 1.3 mg/dL
- ABSOLUTE BASOPHIL [3]: 0 CELLS/uL
- ABSOLUTE EOSINOPHIL [3]: 51 CELLS/uL
- ABSOLUTE LYMPHOCYTE [3]: 12546 CELLS/uL
- ABSOLUTE MONOCYTE [3]: 436.67 CELLS/uL
- ABSOLUTE SEGMENTED NEUTROPHIL [3]: 1333 CELLS/uL
- BASOPHIL [3]: 0%
- EOSINOPHIL [3]: 0.33%
- ERYTHROCYTE COUNT [3]: 5.38 x10E6/uL
- HEMATOCRIT [3]: 33.6%
- HEMOGLOBIN [3]: 13.03 G/DL
- LEUKOCYTE COUNT [3]: 14.37 x10E3/uL
- LYMPHOCYTE [3]: 87.33%
- MEAN CORPUSCULAR HEMOGLOBIN [3]: 24.23 pg
- MEAN CORPUSCULAR HEMOGLOBIN CONCENTRATION [3]: 38.83 G/DL
- MEAN CORPUSCULAR VOLUME [3]: 62.47 fL
- MONOCYTE [3]: 3%
- NEUTROPHIL [3]: 9.33%
- NUCLEATED RED BLOOD CELLS [3]: 0.33 /100WBC
- PLATELET COUNT [3]: 1312 x10E3/uL
- ALANINE AMINOTRANSFERASE [3]: 57.33 u/L
- ALBUMIN [3]: 4.17 G/DL
- ALKALINE PHOSPHATASE [3]: 279 u/L
- ASPARTATE AMINOTRANSFERASE [3]: 70.67 u/L
- BLOOD UREA NITROGEN [3]: 22.33 mg/dL
- CARBON DIOXIDE [3]: 27.67 mmol/L
- CHLORIDE [3]: 104.67 MEQ/L
- CHOLESTEROL [3]: 86.67 mg/dL
- CREATINE PHOSPHOKINASE [3]: 220 u/L
- CREATININE [3]: 0.24 mg/dL
- GLUCOSE [3]: 154 mg/dL
- LACTATE DEHYDROGENASE [3]: 170.33 u/L
- LIPASE [3]: 9.33 u/L
- PHOSPHORUS [3]: 12.93 mg/dL
- POTASSIUM [3]: 6.66 MEQ/L
- SODIUM [3]: 145.07 MEQ/L
- TOTAL BILIRUBIN [3]: 0.17 mg/dL
- TOTAL PROTEIN [3]: 5.8 G/DL
- URIC ACID [3]: 1.5 mg/dL
- ABSOLUTE BASOPHIL [4]: 0 CELLS/uL
- ABSOLUTE EOSINOPHIL [4]: 238.67 CELLS/uL
- ABSOLUTE LYMPHOCYTE [4]: 14472.33 CELLS/uL
- ABSOLUTE MONOCYTE [4]: 270.33 CELLS/uL
- ABSOLUTE SEGMENTED NEUTROPHIL [4]: 2185.33 CELLS/uL
- BASOPHIL [4]: 0%
- EOSINOPHIL [4]: 1.33%
- ERYTHROCYTE COUNT [4]: 5.62 x10E6/uL
- HEMATOCRIT [4]: 33.9%
- HEMOGLOBIN [4]: 13.03 G/DL
- LEUKOCYTE COUNT [4]: 17.17 x10E3/uL
- LYMPHOCYTE [4]: 84.33%
- MEAN CORPUSCULAR HEMOGLOBIN [4]: 23.2 pg
- MEAN CORPUSCULAR HEMOGLOBIN CONCENTRATION [4]: 38.43 G/DL
- MEAN CORPUSCULAR VOLUME [4]: 60.33 fL
- MONOCYTE [4]: 1.67%
- NEUTROPHIL [4]: 12.67%
- NUCLEATED RED BLOOD CELLS [4]: 0.67 /100WBC
- PLATELET COUNT [4]: 1441.67 x10E3/uL
- ALANINE AMINOTRANSFERASE [4]: 49.33 u/L
- ALBUMIN [4]: 4.13 G/DL
- ALKALINE PHOSPHATASE [4]: 284.33 u/L
- ASPARTATE AMINOTRANSFERASE [4]: 91.33 u/L
- BLOOD UREA NITROGEN [4]: 20 mg/dL
- CARBON DIOXIDE [4]: 27 mmol/L
- CHLORIDE [4]: 102.67 MEQ/L
- CHOLESTEROL [4]: 62.33 mg/dL
- CREATINE PHOSPHOKINASE [4]: 540.67 u/L
- CREATININE [4]: 0.21 mg/dL
- GLUCOSE [4]: 156.67 mg/dL
- LACTATE DEHYDROGENASE [4]: 601 u/L
- LIPASE [4]: 8.67 u/L
- PHOSPHORUS [4]: 13.17 mg/dL
- POTASSIUM [4]: 5.78 MEQ/L
- SODIUM [4]: 147.03 MEQ/L
- TOTAL BILIRUBIN [4]: 0.13 mg/dL
- TOTAL PROTEIN [4]: 5.8 G/DL
- URIC ACID [4]: 1.77 mg/dL
